Measured values: patent US10745416B2, “Macrocyclic compounds for treating disease” (Turning Point Therapeutics, Inc., priority 2017, dated 2020)

Legend:
Assay in all cases: Cell proliferation assay (CellTiter-Glo, 72 hours)
[1] = tested on: KG-1; type: cell-based, human
Experimental: (§1) Human medulla thyroid carcinoma cell line TT (containing RET […] mutation) and acute myelogenous cell line KG-1 were purchased from ATCC. Human colon cancer cell line KMI2 (containing TPM3-TRKA) was obtained from NCI.
(§2) Two thousand cells per well were seeded in 384 well white plate for 24 hrs, and then treated with compounds for 72 hours (37° C., 5% CO2). Cell proliferation was measured using CellTiter-Glo luciferase-based ATP detection assay (Promega) following the manufactures's protocol. IC50 determinations were performed using GraphPad Prism software (GraphPad, Inc., San Diego, Calif.).

[2] = tested on: KM12 cell (TPM3-TRKA); type: cell-based, human
Experimental: as §1, §2

[3] = target: T1, BaF3 KIF5B-RET_G810R (Homo sapiens, UniProt P07949, G810R, cells depend on it); type: cell-based; details: anti-cell proliferation, read-out: BaF3 KIF5B-RET_G810R IC50
T1 construct: fused on or other part: P33176 (Kinesin-1 heavy chain)
Text: [The source words this procedure for another variant and reports this variant under the same test.] (§3) The KIF5B-RET gene was synthesized at GenScript and cloned into pCDH-CMV-MCS-EF1-Puro plasmid (System Biosciences, Inc). KIF5B-RET point mutation V804M was generated at GenScript by PCR and confirmed by sequencing. Ba/F3-KIF5B-RET wild type and mutant were generated by transducing Ba/F3 cells with lentivirus containing KIF5B-RET wide type or mutant. Stable cell lines were selected by puromycin treatment, followed by IL-3 withdrawal. Briefly, 5×10^6 Ba/F3 cells were transduced with lentivirus supernatant in the presence of 8 μg/mL protamine sulfate. The transduced cells were subsequently selected with 1 µg/mL puromycin in the presence of IL3-containing medium RPMI1640, plus 10% FBS. After 10-12 days of selection, the surviving cells were further selected for IL3 independent growth.
as §2

[4] = target: T2, BaF3 KIF5B-RET (Homo sapiens, UniProt P07949); type: cell-based; details: anti-cell proliferation, read-out: BaF3 KIF5B-RET IC50
T2 construct: fused on or other part: P33176 (Kinesin-1 heavy chain)
Text: as §3, §2

[5] = target: T3, BaF3 KIF5B-RET_V804M (Homo sapiens, UniProt P07949, V804M, cells depend on it); type: cell-based; details: anti-cell proliferation, read-out: BaF3 KIF5B-RET_V804M IC50
T3 construct: fused on or other part: P33176 (Kinesin-1 heavy chain)
Text: as §3, §2

[6] = target: T4, BaF3 EML4-ALK (Homo sapiens, UniProt Q9UM73); type: cell-based; details: anti-cell proliferation
T4 construct: The EML4-ALK gene (variant 1) was synthesized at GenScript and cloned into pCDH-CMV-MCS-EF1-Puro plasmid (System Biosciences, Inc); fused on or other part: Q9HC35 (Echinoderm microtubule-associated protein-like 4)
Experimental: The EML4-ALK gene (variant 1) was synthesized at GenScript and cloned into pCDH-CMV-MCS-EF1-Puro plasmid (System Biosciences, Inc). Ba/F3-EML4-ALK wild type were generated by transducing Ba/F3 cells with lentivirus containing EML4-ALK wide type. Stable cell lines were selected by puromycin treatment, followed by IL-3 withdrawal. Briefly, 5×10^6 Ba/F3 cells were transduced with lentivirus supernatant in the presence of 8 μg/mL protamine sulfate. The transduced cells were subsequently selected with 1 μg/mL puromycin in the presence of IL3-containing medium RPMI1640, plus 10% FBS. After 10-12 days of selection, the surviving cells were further selected for IL3 independent growth.
as §2

[7] = Homo sapiens, KG-1, anti-cell proliferation
[8] = Homo sapiens, KM12, anti-cell proliferation

T3 sequence (P07949 whole entry V804M, the tested form may be a part): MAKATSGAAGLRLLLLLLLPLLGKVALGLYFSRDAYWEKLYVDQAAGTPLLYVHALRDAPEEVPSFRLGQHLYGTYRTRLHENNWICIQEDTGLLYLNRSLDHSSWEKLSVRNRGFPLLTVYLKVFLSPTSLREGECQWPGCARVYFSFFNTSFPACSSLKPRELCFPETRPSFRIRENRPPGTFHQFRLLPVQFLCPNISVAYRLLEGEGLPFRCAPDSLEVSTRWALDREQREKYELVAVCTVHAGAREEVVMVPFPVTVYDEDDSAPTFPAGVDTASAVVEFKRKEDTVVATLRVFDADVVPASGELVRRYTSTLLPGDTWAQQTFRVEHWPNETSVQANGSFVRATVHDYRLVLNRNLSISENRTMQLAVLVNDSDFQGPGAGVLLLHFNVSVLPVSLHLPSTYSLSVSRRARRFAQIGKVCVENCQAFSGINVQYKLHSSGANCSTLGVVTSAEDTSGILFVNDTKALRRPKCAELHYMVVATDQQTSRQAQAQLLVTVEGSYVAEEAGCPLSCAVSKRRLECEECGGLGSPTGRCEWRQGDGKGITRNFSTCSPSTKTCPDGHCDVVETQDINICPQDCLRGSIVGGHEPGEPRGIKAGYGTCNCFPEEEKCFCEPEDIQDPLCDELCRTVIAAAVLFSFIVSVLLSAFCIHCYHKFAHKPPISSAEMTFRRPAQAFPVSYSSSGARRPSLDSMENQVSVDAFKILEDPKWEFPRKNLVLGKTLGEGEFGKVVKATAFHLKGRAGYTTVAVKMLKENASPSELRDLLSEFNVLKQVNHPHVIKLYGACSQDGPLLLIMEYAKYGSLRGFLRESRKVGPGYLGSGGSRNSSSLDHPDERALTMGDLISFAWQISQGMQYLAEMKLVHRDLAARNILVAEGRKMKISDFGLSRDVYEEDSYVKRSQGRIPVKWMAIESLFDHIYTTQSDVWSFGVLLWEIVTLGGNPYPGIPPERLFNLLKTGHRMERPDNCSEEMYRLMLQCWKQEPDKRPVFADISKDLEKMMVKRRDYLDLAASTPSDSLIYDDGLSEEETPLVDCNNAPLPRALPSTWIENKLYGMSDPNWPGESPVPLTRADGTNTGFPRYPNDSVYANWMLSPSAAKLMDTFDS
T2 sequence (P07949 whole entry, change not shown, the tested form may be a part): as the sequence (P07949 whole entry V804M, the tested form may be a part) above, with M804V counted along it
T4 sequence (Q9UM73 whole entry, change not shown, the tested form may be a part): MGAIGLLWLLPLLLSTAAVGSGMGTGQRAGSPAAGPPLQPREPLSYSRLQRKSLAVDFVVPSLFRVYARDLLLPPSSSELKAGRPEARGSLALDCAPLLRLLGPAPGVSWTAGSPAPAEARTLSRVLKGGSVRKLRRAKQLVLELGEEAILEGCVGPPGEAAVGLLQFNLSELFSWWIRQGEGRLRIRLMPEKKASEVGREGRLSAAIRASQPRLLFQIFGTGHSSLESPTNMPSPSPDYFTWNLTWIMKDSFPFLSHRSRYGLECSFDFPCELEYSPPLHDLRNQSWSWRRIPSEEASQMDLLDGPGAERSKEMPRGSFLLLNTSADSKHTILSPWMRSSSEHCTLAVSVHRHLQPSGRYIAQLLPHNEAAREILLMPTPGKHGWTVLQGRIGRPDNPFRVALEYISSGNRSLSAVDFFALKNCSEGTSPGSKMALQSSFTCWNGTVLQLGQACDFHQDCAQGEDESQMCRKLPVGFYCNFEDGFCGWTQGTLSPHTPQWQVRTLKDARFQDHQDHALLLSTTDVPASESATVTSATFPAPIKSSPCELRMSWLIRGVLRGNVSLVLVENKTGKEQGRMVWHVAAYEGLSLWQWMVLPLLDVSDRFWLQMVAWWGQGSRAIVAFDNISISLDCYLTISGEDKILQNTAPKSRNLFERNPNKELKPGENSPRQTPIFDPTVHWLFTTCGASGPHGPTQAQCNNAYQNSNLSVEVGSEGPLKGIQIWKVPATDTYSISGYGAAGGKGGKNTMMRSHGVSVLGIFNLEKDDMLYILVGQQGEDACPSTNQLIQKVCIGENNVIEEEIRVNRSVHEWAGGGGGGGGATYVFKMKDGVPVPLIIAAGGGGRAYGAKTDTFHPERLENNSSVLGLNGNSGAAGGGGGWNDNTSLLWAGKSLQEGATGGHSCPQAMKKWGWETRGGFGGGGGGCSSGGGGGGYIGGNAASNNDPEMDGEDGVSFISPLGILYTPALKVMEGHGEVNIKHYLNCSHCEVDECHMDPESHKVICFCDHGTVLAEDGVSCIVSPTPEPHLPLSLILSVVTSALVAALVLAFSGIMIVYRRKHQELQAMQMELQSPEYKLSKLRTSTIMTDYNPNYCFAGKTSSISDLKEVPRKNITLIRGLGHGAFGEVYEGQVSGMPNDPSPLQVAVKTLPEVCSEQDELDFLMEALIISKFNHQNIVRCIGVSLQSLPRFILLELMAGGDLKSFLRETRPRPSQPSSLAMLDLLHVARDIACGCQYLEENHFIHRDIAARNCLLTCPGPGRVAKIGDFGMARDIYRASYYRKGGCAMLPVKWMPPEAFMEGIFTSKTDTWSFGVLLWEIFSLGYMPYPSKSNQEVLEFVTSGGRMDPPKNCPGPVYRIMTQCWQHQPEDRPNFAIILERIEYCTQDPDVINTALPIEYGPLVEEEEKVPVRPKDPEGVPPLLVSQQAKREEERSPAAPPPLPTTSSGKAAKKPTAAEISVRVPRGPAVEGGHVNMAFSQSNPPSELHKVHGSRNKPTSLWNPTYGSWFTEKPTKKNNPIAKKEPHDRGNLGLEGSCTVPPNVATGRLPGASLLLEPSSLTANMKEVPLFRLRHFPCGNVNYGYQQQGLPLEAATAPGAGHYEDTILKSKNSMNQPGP
T1 sequence (P07949 whole entry G810R, the tested form may be a part): as the sequence (P07949 whole entry V804M, the tested form may be a part) above, with M804V, G810R counted along it

Row | Molecule | IC50 ([1]; anti-cell proliferation) [µM] | IC50 ([2]; anti-cell proliferation) [µM] | GI50 [3] [µM] | GI50 [4] [µM] | GI50 [5] [µM] | GI50 [6] [µM] | IC50 [1, 7] [µM] | IC50 [2, 8] [µM]
1 | (3aR,11s,13S,21aS)-7-fluoro-2,3,3a,12, 13,14,15,21a-octahydro-1H,5H,11H- 11,13-methano-18,20- (metheno)cyclopenta[5,6][1,4] oxazino[4,3-e]pyrazolo[3,4-h]pyrido[2,3- b][1,5,7,11]oxatriazacyclotetradecine [Compound 46] | 0.0059 | 0.0028 | 0.0029 | < 0.0002 | 0.0715 | 0.0555 |  | 
2 | CC1(C)CNC(=O)c2cnn3cc4c(nc23)N(Cc2cc(F)cnc2OC1)[C@@H]1CCC[C@@H]1O4 [Compound 27, (3aR,21aS)-7-fluoro-12,12-dimethyl-2,3,3a,11,12,13,14,21a-octahydro-1H,5H,15H-18,20-(metheno)cyclopenta[5,6][1,4]oxazino[4,3-e]pyrazolo[3,4-h]pyrido[2,3-b][1,5,7,11]oxatriazacyclotetradecin-15-one] |  |  | 0.063 | < 0.0002 | 2 | 1 | 0.0003 | 0.0003
3 | O=C1N[C@@H]2CCC[C@@H]2Oc2ncc(F)cc2CN2c3nc4c1cnn4cc3O[C@H]1CCC[C@H]12 [Compound 24, (3aS,11aR,14aS,21aR)-18-fluoro-2,3,3a,11,11a,12,13,14,14a,21a-decahydro-1H,10H,20H-7,5-(metheno)cyclopenta[b]cyclopenta[5,6][1,4] oxazino[3,4-i]pyrazolo[4,3-f]pyrido[3,2-l][1,4,8,10]oxatriazacyclotridecin-10-one] |  |  | 0.0736 | 0.0018 | 1.22 | 0.469 | 0.0087 | 0.0028
4 | O=C1N[C@H](C(F)(F)F)COc2ncc(F)cc2CN2c3nc4c1cnn4cc3O[C@H]1CCC[C@H]12 [Compound 48, (3aR,12S,20aS)-7-fluoro-12-(trifluoromethyl)-2,3,3a,12,13,20a-hexahydro-1H,5H-17,19-(metheno)cyclopenta[5,6][1,4]oxazino[3,4-i]pyrazolo[4,3-f]pyrido[3,2-l][1,4,8,10]oxatriazacyclotridecin-14(11H)-one] |  |  | 0.0909 | 0.0002 | 1.07 | 0.456 | 0.117 | 0.0059
5 | C[C@@H]1CCOc2ncc(F)cc2CN2c3nc4c(cnn4cc3O[C@H]3CCC[C@H]32)C(=O)N1 [Compound 16, (3aR,13R,21aS)-7-fluoro-13-methyl-2,3,3a,11,12,13,14,21a-octahydro-1H,5H, 15H-18,20-(metheno)cyclopenta[5,6] [1,4]oxazino[4,3-e]pyrazolo[3,4-h]pyrido [2,3-b][1,5,7,11]oxatriazacyclotetradecin-15-one] |  |  | 0.0412 | 0.0166 | 5 | 0.34 | 0.0474 | 0.0455
6 | O=C1NC[C@H](F)COc2ncc(F)cc2CN2c3nc4c1cnn4cc3O[C@H]1CCC[C@H]12 [Compound 38, (3aR,12S,21aS)-7,12-difluoro-2,3,3a,11,12,13,21a-octahydro-1H,5H, 15H-18,20-(metheno)cyclopenta[5,6][1,4] oxazino[4,3-e]pyrazolo[3,4-h]pyrido[2,3-b][1,5,7,11]oxatriazacyclotetradecin-15-one] |  |  | 0.0003 | < 0.0002 | 0.349 | 0.0821 | < 0.0002 | < 0.0002
7 | C[C@@H]1COc2c(F)cc(F)cc2CN2c3nc4c(cnn4cc3O[C@H]3CCC[C@H]32)C(=O)N1 [Compound 7, (3aR,12R,20aS)-7,9-difluoro-12-methyl-2,3,3a,12,13,20a-hexahydro-1H,5H-17-19-(metheno)cyclopenta[5,6][1,4] oxazino[3,4-i]pyrazolo[4,3-f][1,4,8,10]benzoxatriazacyclotridecin-14(11H)-one] |  |  | 0.0992 | 0.0002 | 1.84 | 0.675 | 0.344 | 0.037
8 | O=C1NC2(CCC2)COc2ncc(F)cc2CN2c3nc4c1cnn4cc3O[C@H]1CCC[C@H]12 [Compound 22, (3a′R,20a′S)-7′-fluoro-1′H,2′H,3′H,3a′H, 5′H,11′H,13′H,14′H,20a′H-spiro[cyclobutane-1,12′-[10,20]dioxa[4,9,13,16,17,18][hexaaza [17,19](metheno)cyclopenta[5,6][1,4]oxazino[3,4-i]pyrazolo[4,3-f]pyrido [3,2-l][1,4,8,10]oxatriazacyclotridecin]-14′-one] |  |  | 0.128 | < 0.0002 | 1.76 | 0.157 | 0.156 | 0.0493
9 | O=C1NC2(CCCC2)COc2ncc(F)cc2CN2c3nc4c1cnn4cc3O[C@H]1CCC[C@H]12 [Compound 26, (3a′R,20a′S)-7′-fluoro-1′H,2′H, 3′H,3a′H,5′H,11′H,13′H,14′H,20a′H-spiro[cyclopentane-1,12′-[10,20]dioxa[4,9,13,16,17,18][hexaaza [17,19](metheno)cyclopenta[5,6][1,4]oxazino[3,4-i]pyrazolo[4,3-f]pyrido [3,2-l][1,4,8,10]oxatriazacyclotridecin]-14′-one] |  |  | 0.323 | 0.16 | 5 | 1.41 | 0.737 | 0.21
10 | C[C@H]1CNC(=O)c2cnn3cc4c(nc23)N(Cc2cc(F)cnc2O1)[C@@H]1CCCC[C@@H]1O4 [Compound 12, (4aR,12S,21aS)-8-fluoro-12-methyl-1,2,3,4,4a,13,14,21a-octahydro-6H-18, 20-(metheno)pyrazolo[4′,3′:6,7]pyrido [3′,2′:12,13][1,4,8, 10]oxatriazacyclotridecino[9,10-c][1,4]benzoxazin-15(12H)-one] |  |  | 1.01 | 0.101 | 4.62 | 2.71 | 0.16 | 0.0138
11 | C[C@@H]1COc2ncc(F)cc2CN2c3nc4c(cnn4cc3O[C@H]3CCCC[C@H]32)C(=O)N1 [Compound 13, (4aR,13S,21aS)-8-fluoro-13-methyl-1,2,3,4,4a,13,14,21a-octahydro-6H-18, 20-(metheno)pyrazolo[4′,3′:6,7]pyrido [3′,2′:12,13][1,4,8, 10]oxatriazacyclotridecino[9,10-c][1,4]benzoxazin-15(12H)-one] |  |  | 1.12 | 0.342 | > 10 | 5 | 0.452 | 0.0284
12 | C[C@H]1CNC(=O)c2cnn3cc4c(nc23)N(Cc2cc(F)cnc2OC1)[C@@H]1CCC[C@@H]1O4 [Compound 17, (3aR,12S,21aS)-7-fluoro-12-methyl-2,3,3a,11,12,13,14,21a-octahydro-1H,5H, 15H-18,20-(metheno)cyclopenta[5,6] [1,4]oxazino[4,3-e]pyrazolo[3,4-h]pyrido [2,3-b][1,5,7,11]oxatriazacyclotetradecin-15-one] |  |  | 0.0107 | 0.0018 | 2.73 | 0.616 | 0.005 | 0.004
13 | O=C1NCC(O)(O)COc2ncc(F)cc2CN2c3nc4c1cnn4cc3O[C@H]1CCC[C@H]12 [Compound 33, (3aR,21aS)-7-fluoro-12,12-dihydroxy-2,3,3a,11,12,13,14,21a-octahydro-1H,5H,15H-18,20-(metheno)cyclopenta[5,6][1,4]oxazino[4,3-e]pyrazolo[3,4-h]pyrido[2,3-b][1,5,7,11]oxatriazacyclotetradecin-15-one] |  |  | 1.2 | 0.198 | 4 | 2 | 0.356 | 0.124
14 | CC1CNC(=O)c2cnn3cc4c(nc23)N(Cc2cc(F)cnc2OC1)[C@@H]1CCC[C@@H]1O4 (stereo partly drawn) [Compound 29, (3aR,21aS)-7-fluoro-12-methyl-2,3,3a,11,12,13,14,21a-octahydro-1H,5H,15H-18,20-(metheno)cyclopenta[5,6][1,4]oxazino[4,3-e]pyrazolo[3,4-h]pyrido[2,3-b][1,5,7,11]oxatriazacyclotetradecin-15-one] |  |  | 0.134 | 0.0003 | 1.38 | 0.901 | 0.0079 | 0.0017
